Measurements reported in PubChem BioAssay AID1397 (The Scripps Research Institute Molecular Screening Center, 2008).
Calls of active or inactive are those of the source.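 Rule for the calls: active = potency EC50 for STAT1 activation at or below 10 micromolar; inactive = EC50 above 10 micromolar.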

System: NIH 3T3 STAT1-luciferase reporter, luminescence
Experiment: enhancement of STAT1 reporter activity – cell-based, NIH 3T3, luciferase luminescence, dose response (AID 1397)
[1] = cells stimulated with IFN-gamma at EC80

## CN(C)c1ccnc2sc(C(=O)c3ccccc3)c(N)c12
[1]
  EC50: 1970 nM

## O=C(/C=C/Nc1ccccc1F)c1ccc(Br)cc1
[1]
  EC50: > 76 nM (inactive)

## Cc1ccc(C(=O)Nc2nc3c(s2)CCCC3)o1
[1]
  EC50: > 229 nM (inactive)

## O=C(/C=C/c1cccc(F)c1)N1CCc2ccccc21
[1]
  EC50: 210 nM

## N#C/C(=C\c1ccc(N2CCOCC2)o1)c1nc2ccccc2[nH]1
[1]
  EC50: > 76 nM (inactive)

## Cc1ccc2nc(NC(=O)CCn3cccc3)sc2c1
[1]
  EC50: 6940 nM

## Cc1ncsc1C(=O)Nc1nc2c(s1)CCCC2
[1]
  EC50: 2680 nM

## Clc1ccc(-n2ncc3c(NCC4CCCO4)ncnc32)cc1 (stereo unspecified)
[1]
  EC50: 409 nM

## Nc1nc2ccc(-c3nc4ccccc4o3)cc2s1
[1]
  EC50: 516 nM

## CN(C)c1ccc(C(=O)OCC(=O)c2cccs2)cc1
[1]
  EC50: > 687 nM (inactive)

## COc1cccc(N/C=C/C(=O)c2ccc(Cl)cc2)c1
[1]
  EC50: 114 nM

## O=C(/C=C/c1ccc(F)cc1)Nc1nc2ccccc2[nH]1
[1]
  EC50: 920 nM

## C/C(=C\c1ccccc1)C(=O)Nc1nccs1
[1]
  EC50: 2090 nM

## CC(=O)COc1ccc2c(C)c(-c3ccccc3)c(=O)oc2c1
[1]
  EC50: 31500 nM (inactive)

## CCN(CC)c1ccc2cc(C(=O)Nc3ccccn3)c(=O)oc2c1
[1]
  EC50: > 76 nM (inactive)

## CC(=O)NC(=S)Nc1sc2c(c1C#N)CCCCC2
[1]
  EC50: > 76 nM (inactive)

## CC(C)=CC(=O)Nc1nc2ccc([N+](=O)[O-])cc2s1
[1]
  EC50: 3130 nM

## Cc1ccc(-c2cc(N)n(-c3ccccc3)n2)cc1
[1]
  EC50: 3000 nM

## CCc1c(C)[nH]c(C(=O)OCc2ccccc2)c1C
[1]
  EC50: 6910 nM

## CCNc1nc(-c2cc3ccccc3o2)cs1
[1]
  EC50: 179 nM

## O=C(O)c1ccccc1C(=O)Nc1ccc(-c2csc(-c3ccccc3)n2)cc1
[1]
  EC50: 3880 nM

## c1cncc(-c2nc3cc4ccccc4cc3[nH]2)c1
[1]
  EC50: 331 nM

## O=C(/C=C/c1ccccc1)Nc1ccc(Cl)cn1
[1]
  EC50: 669 nM

## O=C(/C=C/Nc1ccc(F)cc1)c1ccc(Br)cc1
[1]
  EC50: 431 nM

## COc1ccc(NC(=S)Nc2ccc3nccnc3c2)cc1
[1]
  EC50: 13300 nM (inactive)

## O=C(NC(=S)Nc1ccc(F)cc1)c1ccc2c(c1)OCCO2
[1]
  EC50: 1000 nM

## O=C(/C(C=Nc1ccc(F)cc1)=C(/O)c1ccco1)C(F)(F)F
[1]
  EC50: > 687 nM (inactive)

## CCCOC(=O)c1ccc(-c2ccc(C=O)o2)cc1
[1]
  EC50: 436 nM

## Cc1nc2ccc3nc(NC(=O)c4ccco4)sc3c2s1
[1]
  EC50: 11000 nM (inactive)

## O=C(OCc1csc(-c2ccccc2)n1)c1cccs1
[1]
  EC50: > 687 nM (inactive)

## CCC(C)NC(=O)c1cc(-c2ccc(OC)cc2)on1 (stereo unspecified)
[1]
  EC50: 1300 nM

## CC(=O)c1cccc(N/C=C\C(=O)c2ccc(C)cc2)c1
[1]
  EC50: > 687 nM (inactive)

## COc1ccc(-c2cc(C)nc3c(-c4ccccc4)cnn23)cc1
[1]
  EC50: > 76 nM (inactive)

## C=CCNC(=O)c1cc(-c2ccc(Br)cc2)on1
[1]
  EC50: 832 nM

## NC(=O)Cc1ccc2sc(-c3ccccc3)nc2c1
[1]
  EC50: 463 nM

## Nc1ncc(-c2cc3ccccc3oc2=O)s1
[1]
  EC50: > 687 nM (inactive)

## CCOC(=O)/C(C#N)=C/c1cc(C)n(-c2ccccc2)c1C
[1]
  EC50: 69 nM

## O=C(Cn1cnc2ccccc2c1=O)c1ccc(Cl)cc1
[1]
  EC50: 8040 nM

## O=C(/C(C=Nc1ccc(Br)cc1)=C(/O)c1ccco1)C(F)(F)F
[1]
  EC50: > 685 nM (inactive)

## COc1cc(NC(=O)c2csc3c2CCCC3)ncn1
[1]
  EC50: 1210 nM

## Cc1ccc(/C=C/C(=O)Nc2ccccc2C(N)=O)cc1
[1]
  EC50: > 687 nM (inactive)

## Cc1nnc(SCC(=O)Nc2ccc(-c3nc4ccccc4s3)cc2)s1
[1]
  EC50: 93 nM

## COc1cccc(NC(=O)Nc2ccc(C(C)(C)C)cc2)c1
[1]
  EC50: 2810 nM

## CCOC(=O)c1ccc2nc(NC(C)=O)sc2c1
[1]
  EC50: 2540 nM

## O=C(Nc1cccc(Cl)c1)c1ccc2c(=O)n3c(nc2c1)CCCCC3
[1]
  EC50: 811 nM

## CCOCC(=O)Nc1nc2ccc(OCC)cc2s1
[1]
  EC50: > 55700 nM (inactive)

## CCOC(=O)c1cnc2c(-c3ccccc3)cnn2c1N
[1]
  EC50: 229 nM

## COc1ccc(/C=C/C(=O)Nc2ccccc2)cc1OC
[1]
  EC50: 5130 nM

## O=C(CCc1nnc(CCCc2ccccc2)o1)N1CCCCCC1
[1]
  EC50: 7830 nM

## CCc1ccc(Nc2ncc3c(n2)CC(C)CC3=O)cc1 (stereo unspecified)
[1]
  EC50: 751 nM

## CCOC(=O)CSc1nc(-c2ccncc2)ccc1C#N
[1]
  EC50: 1200 nM

## Cc1nc(-c2ccc(NC(=O)c3ccccc3Br)cc2)cs1
[1]
  EC50: 2600 nM

## O=C(Nc1ccc(-c2nc3cccnc3s2)cc1)c1ccco1
[1]
  EC50: 341 nM

## O=C(NCCC1=CCCCC1)c1ccc(F)cc1
[1]
  EC50: > 687 nM (inactive)

## Fc1ccccc1CSc1nnc(-c2cccnc2)o1
[1]
  EC50: 4520 nM

## COc1ccc(Nc2oc(-c3cccs3)nc2C#N)cc1
[1]
  EC50: 3220 nM

## Nc1ccc2oc(-c3ccccc3Cl)nc2c1
[1]
  EC50: > 229 nM (inactive)

## Cc1occc1C(=O)Nc1ccc2c(c1)CCC2
[1]
  EC50: 1600 nM

## Cc1ccc(C(=O)N2CCc3ccccc32)o1
[1]
  EC50: > 687 nM (inactive)

## Cc1ccc(/C=C/C(=O)N2CCCC(C)C2)cc1 (stereo unspecified)
[1]
  EC50: > 687 nM (inactive)

## Cc1nc(-c2ccc(NC(=O)c3ccccc3C)cc2)cs1
[1]
  EC50: 1840 nM

## Cc1ccc(NC(=O)Nc2ccc3oc(C)nc3c2)cc1
[1]
  EC50: 1650 nM

## CCOc1ccc2nc(N3CCOCC3)nc(C)c2c1
[1]
  EC50: 2300 nM

## C=CCn1c(C)cc(C(=O)CSc2nc3ccccc3o2)c1C
[1]
  EC50: > 229 nM (inactive)

## CC(=O)c1cccc(NC(=S)NC(=O)c2cccc(C)c2)c1
[1]
  EC50: 1890 nM

## O=[N+]([O-])c1ccccc1OCCCn1cnc2ccccc21
[1]
  EC50: 1500 nM

## Clc1ccc(-n2ncc3c(N4CCCC4)ncnc32)cc1
[1]
  EC50: > 55700 nM (inactive)

## CN(C)c1nc(N)nc(CSc2nc3cc(Cl)ccc3o2)n1
[1]
  EC50: 18600 nM (inactive)

## Nc1ccccc1C(=O)OCC(=O)N1CCc2ccccc21
  EC50: 2220 nM

## COc1ccc2c(c1)oc(=O)c1cc(OC)ccc12
[1]
  EC50: 4280 nM

## COc1ccc(N/C=C\C(=O)c2ccc3c(c2)OCO3)cc1OC
[1]
  EC50: 2860 nM

## Cc1nc2ccc(-c3nc4ccccc4o3)cc2[nH]1
[1]
  EC50: 356 nM

## Cc1ccc(C(=O)/C=C/Nc2cccc([N+](=O)[O-])c2)o1
[1]
  EC50: 1380 nM

## O=C(c1ccccc1)c1ccc(N2CCCC2)cc1
[1]
  EC50: 1970 nM

## CC(C)(C)N=C1NN=C(c2cc3ccccc3o2)CS1
[1]
  EC50: 825 nM

## CCCCOC(=O)Nc1nc2ccccc2s1
[1]
  EC50: 741 nM

## Nc1ccc2nn(-c3ccccc3)nc2c1
[1]
  EC50: 1350 nM

## Cc1ccc(C(=O)Nc2nc3ccccc3s2)s1
[1]
  EC50: > 76 nM (inactive)

## Nc1ccccc1Nc1cc(-c2ccccc2)[nH]n1
[1]
  EC50: 2720 nM

## C=CCNC(=S)NNC(=O)COc1ccc2cc(Br)ccc2c1
[1]
  EC50: 3040 nM

## Cc1cccc(Nc2n[nH]c(C)c2[N+](=O)[O-])c1
[1]
  EC50: 1240 nM

## Cc1ccc(-c2cc3nc(C)cc(NCc4ccco4)n3n2)cc1
[1]
  EC50: 3430 nM

## Fc1ccc2nc(Nc3nc4cc5c(cc4s3)OCCO5)sc2c1
[1]
  EC50: 1290 nM

## O=C(/C=C/c1ccco1)Nc1ccccn1
[1]
  EC50: > 687 nM (inactive)

## COc1ccc(-c2nc3ccc([N+](=O)[O-])cc3[nH]2)cc1
[1]
  EC50: 126 nM

## COc1ccc2[nH]c3c(c2c1)CCn1c-3nc2ccccc2c1=O
[1]
  EC50: > 76 nM (inactive)

## CC(C)Oc1ccc2c(=O)c(-c3ccccc3)coc2c1
[1]
  EC50: 418 nM

## c1ccc(CNc2ccc3ccccc3n2)nc1
[1]
  EC50: > 687 nM (inactive)

## O=C(Nc1ccc2c(c1)OCCO2)c1ccc(Br)s1
[1]
  EC50: > 229 nM (inactive)

## COc1ccc(-c2cc3ncc(-c4ccccc4)c(N)n3n2)cc1
[1]
  EC50: 1210 nM

## COc1ccc2nc(Nc3ccc4c(c3)OCO4)sc2c1
[1]
  EC50: 3070 nM

## c1csc(C2=NNC(=NC3CCCCC3)SC2)c1
[1]
  EC50: > 688 nM (inactive)

## COc1ccc(-c2csc(N3C(=O)CNC3=S)n2)cc1
[1]
  EC50: 87 nM

## CCCCCNc1nc(-c2ccccc2)cs1
[1]
  EC50: 851 nM

## Cc1cc(C(=O)NCCC2=CCCCC2)c(C)o1
[1]
  EC50: > 229 nM (inactive)

## CCOC(=O)c1sc(NC(=O)c2sccc2C)cc1C
[1]
  EC50: 233 nM

## Cc1ccc(-c2cnc(-c3ccncc3)o2)cc1
[1]
  EC50: 3300 nM

## CC(=O)Nc1cccc(-c2cnc3ccccc3n2)c1
[1]
  EC50: 3860 nM

## CN1C(=O)/C(=C/C=C2\SCCN2C)SC1=S
[1]
  EC50: 420 nM

## CC(=O)Nc1ccccc1C(=O)OCc1cccc(F)c1
  EC50: 3020 nM

## O=C(NC(=S)Nc1ccccn1)c1ccc([N+](=O)[O-])cc1
[1]
  EC50: 525 nM

## C=CCNc1nc(-c2cc3ccccc3o2)cs1
[1]
  EC50: > 764 nM (inactive)

## CCc1ccc(NC(=O)N2CCC(c3ccccc3)C2)cc1 (stereo unspecified)
[1]
  EC50: 1370 nM

## COc1ccc2nc(Nc3nc(C)c(C(C)=O)s3)sc2c1
[1]
  EC50: 2120 nM

## O=C(Nc1nccs1)c1ccc(-c2ccc([N+](=O)[O-])cc2)o1
[1]
  EC50: 1220 nM

## CC(=O)Nc1ccc(-c2csc(Nc3cccc(C)n3)n2)cc1
[1]
  EC50: 1650 nM
